Results as given in ChEMBL document CHEMBL3431459, “Roche carnitine palmitoyltransferase modulator screening data (supplementary data associated with the publication CHEMBL2216752)”.
In brackets after ≈: the same amount, converted by molar mass.

What was measured:
[1] = target: T1, Carnitine O-palmitoyltransferase 1, muscle isoform (Homo sapiens, UniProt Q92523); experiment: SUPPLEMENTARY: Inhibition of Carnitine palmitoyltransferase 1, muscle isoform; set-up: species or system Muscle tissue
T1 sequence (Q92523 whole entry): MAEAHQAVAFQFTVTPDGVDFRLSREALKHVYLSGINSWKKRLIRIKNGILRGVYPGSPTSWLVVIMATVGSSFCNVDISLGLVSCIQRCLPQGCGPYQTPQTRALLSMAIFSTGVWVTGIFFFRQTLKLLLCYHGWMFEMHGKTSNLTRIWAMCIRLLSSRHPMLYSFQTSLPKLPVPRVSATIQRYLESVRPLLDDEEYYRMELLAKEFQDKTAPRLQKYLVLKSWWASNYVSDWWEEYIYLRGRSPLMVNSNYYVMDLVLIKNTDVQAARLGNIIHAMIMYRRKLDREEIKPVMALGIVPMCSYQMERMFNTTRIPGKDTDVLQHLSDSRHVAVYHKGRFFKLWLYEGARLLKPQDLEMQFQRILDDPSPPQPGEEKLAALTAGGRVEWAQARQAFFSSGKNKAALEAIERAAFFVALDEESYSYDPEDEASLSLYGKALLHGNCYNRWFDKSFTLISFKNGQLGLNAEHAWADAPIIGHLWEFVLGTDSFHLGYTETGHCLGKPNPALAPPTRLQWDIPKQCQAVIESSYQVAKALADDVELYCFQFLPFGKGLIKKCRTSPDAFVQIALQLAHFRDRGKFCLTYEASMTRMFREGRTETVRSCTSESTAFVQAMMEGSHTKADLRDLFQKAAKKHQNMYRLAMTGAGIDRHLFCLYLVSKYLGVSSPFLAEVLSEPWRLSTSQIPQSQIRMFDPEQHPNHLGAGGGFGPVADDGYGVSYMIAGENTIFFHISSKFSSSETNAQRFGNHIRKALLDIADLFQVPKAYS

[2] = SUPPLEMENTARY: Lyophilisation Solubility Assay (LYSA); format: physicochemical; settings: read-out: Kinetic_solubility
[3] = target: T2, Carnitine O-palmitoyltransferase 1, liver isoform (Homo sapiens, UniProt P50416); experiment: (§1) SUPPLEMENTARY: Inhibition of Carnitine palmitoyltransferase 1, liver isoform
T2 sequence (P50416 whole entry): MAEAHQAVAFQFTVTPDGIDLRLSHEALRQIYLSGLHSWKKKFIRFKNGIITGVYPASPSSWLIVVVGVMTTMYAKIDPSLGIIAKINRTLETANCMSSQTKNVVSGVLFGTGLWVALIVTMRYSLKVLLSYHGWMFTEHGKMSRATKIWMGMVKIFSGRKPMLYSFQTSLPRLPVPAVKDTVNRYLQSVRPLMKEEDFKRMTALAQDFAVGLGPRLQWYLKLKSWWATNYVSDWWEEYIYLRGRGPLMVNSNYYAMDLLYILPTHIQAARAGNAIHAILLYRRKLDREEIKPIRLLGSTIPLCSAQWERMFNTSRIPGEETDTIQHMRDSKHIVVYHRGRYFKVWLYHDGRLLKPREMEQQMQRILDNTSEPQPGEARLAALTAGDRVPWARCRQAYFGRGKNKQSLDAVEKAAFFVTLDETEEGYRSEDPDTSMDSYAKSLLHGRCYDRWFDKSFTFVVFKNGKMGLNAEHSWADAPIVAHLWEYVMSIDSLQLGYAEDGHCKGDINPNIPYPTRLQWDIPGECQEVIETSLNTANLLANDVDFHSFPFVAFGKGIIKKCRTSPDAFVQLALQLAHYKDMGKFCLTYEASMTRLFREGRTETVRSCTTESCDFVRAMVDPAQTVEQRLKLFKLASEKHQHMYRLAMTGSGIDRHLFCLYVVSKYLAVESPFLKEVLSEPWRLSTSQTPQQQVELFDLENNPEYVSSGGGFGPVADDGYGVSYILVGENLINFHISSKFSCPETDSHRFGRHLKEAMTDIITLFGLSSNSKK

[4] = target: T3, Carnitine O-palmitoyltransferase 1, liver isoform (Rattus norvegicus, UniProt P32198); experiment: as §1
T3 sequence (P32198 whole entry): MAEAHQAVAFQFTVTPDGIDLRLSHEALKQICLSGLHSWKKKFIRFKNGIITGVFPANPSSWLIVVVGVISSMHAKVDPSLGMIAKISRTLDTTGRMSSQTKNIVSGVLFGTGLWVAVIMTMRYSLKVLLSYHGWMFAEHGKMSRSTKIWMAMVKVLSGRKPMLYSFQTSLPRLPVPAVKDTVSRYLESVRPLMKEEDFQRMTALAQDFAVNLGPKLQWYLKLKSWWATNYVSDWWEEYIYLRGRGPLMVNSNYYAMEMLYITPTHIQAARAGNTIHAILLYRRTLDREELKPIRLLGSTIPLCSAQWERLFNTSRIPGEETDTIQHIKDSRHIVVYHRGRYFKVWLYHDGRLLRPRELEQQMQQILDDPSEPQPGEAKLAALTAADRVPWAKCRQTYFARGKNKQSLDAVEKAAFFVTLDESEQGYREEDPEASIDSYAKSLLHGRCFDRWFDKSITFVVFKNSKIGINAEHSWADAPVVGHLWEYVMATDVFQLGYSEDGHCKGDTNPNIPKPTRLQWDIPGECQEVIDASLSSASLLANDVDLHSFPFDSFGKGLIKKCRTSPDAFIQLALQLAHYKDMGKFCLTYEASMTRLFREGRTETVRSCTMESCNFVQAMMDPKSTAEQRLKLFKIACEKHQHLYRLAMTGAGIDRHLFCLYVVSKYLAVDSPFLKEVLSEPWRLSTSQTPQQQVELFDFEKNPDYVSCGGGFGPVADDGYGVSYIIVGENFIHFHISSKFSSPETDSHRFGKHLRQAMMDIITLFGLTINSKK

[5] = SUPPLEMENTARY: Lipophilicity (log D) Determination by high-throughput shake-flask; format: physicochemical; settings: octanol/water
[6] = SUPPLEMENTARY: PAMPA permeability assay; format: physicochemical; settings: read-out: Permeability
[7] = target: T4, Carnitine O-palmitoyltransferase 2, mitochondrial (Rattus norvegicus, UniProt P18886); experiment: (§2) SUPPLEMENTARY: Inhibition of Carnitine palmitoyltransferase 2
T4 sequence (P18886 whole entry): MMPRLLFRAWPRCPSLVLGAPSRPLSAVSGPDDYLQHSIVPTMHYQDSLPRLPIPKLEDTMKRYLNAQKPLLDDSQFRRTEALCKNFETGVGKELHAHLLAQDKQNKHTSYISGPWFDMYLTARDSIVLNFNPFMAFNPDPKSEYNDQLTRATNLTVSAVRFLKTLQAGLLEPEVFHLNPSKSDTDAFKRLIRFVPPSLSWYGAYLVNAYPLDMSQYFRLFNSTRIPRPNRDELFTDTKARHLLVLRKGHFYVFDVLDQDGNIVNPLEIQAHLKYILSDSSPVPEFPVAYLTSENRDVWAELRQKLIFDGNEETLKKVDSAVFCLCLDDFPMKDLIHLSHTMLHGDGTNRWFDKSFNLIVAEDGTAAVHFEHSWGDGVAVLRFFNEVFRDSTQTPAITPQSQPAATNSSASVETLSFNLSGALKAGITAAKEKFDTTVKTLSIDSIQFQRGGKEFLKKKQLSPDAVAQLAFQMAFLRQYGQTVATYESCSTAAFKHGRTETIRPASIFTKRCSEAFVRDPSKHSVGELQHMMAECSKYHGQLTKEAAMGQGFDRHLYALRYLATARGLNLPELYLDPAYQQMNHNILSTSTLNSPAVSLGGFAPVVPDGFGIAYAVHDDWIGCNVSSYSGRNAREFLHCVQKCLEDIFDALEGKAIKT

[8] = target: T5, Carnitine O-palmitoyltransferase 2, mitochondrial (Homo sapiens, UniProt P23786); experiment: as §2
T5 sequence (P23786 whole entry): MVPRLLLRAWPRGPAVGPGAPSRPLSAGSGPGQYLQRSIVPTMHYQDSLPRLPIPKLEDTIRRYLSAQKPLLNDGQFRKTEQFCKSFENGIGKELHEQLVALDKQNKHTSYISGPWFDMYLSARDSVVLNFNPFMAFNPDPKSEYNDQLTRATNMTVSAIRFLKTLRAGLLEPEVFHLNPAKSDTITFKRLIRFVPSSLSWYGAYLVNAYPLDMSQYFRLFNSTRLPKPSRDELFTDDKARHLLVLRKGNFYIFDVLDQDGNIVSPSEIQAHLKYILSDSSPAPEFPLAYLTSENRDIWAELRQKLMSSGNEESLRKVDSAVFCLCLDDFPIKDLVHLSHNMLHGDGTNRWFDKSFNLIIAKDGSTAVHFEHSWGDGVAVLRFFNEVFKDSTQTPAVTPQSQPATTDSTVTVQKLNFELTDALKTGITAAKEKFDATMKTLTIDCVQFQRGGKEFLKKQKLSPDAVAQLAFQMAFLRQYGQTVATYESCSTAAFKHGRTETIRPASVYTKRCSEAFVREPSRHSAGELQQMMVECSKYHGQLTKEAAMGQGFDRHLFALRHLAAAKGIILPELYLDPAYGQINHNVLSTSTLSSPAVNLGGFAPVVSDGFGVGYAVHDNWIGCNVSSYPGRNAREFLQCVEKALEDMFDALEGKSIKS

IC50 [1] [nM]	solubility kinetic [2] [µg/mL]	IC50 [3] [nM]	IC50 [4] [nM]	logD [5]	Papp [6] [×10⁻⁶ cm/s]	IC50 [7] [nM]	IC50 [8] [nM]	Structure (SMILES)
> 100000	33 (≈ 76.5 µM)	114	316	2.9	2	74700	44200	O=C1CCN1c1cccc(-c2n[nH]c([C@H]3CCCCN3C(=O)COc3ccccc3)n2)c1
> 100000	81 (≈ 213 µM)	34.4	221	2.62	4.44	30200	> 100000	Nc1ccc(-c2noc([C@H]3CCCCN3C(=O)COc3ccccc3)n2)cn1
> 100000	94 (≈ 256 µM)	156	555	2.16	9.41	> 100000	> 100000	Cn1ccc(-c2nc([C@H]3CCCCN3C(=O)COc3ccccc3)no2)n1
> 100000	2 (≈ 4.76 µM)	177	147	3.31	2.4	> 100000	18000	O=C(COc1ccccc1)N1CCCC[C@@H]1c1noc(-c2ccc3ncsc3c2)n1
2520	6 (≈ 13.2 µM)	200	148	2.21	0.18	22900	4470	COc1ccc(Cl)cc1Sc1c[nH]c2ccc(C(=O)Nc3ccc(C(=O)O)cc3)cc12
> 100000	< 1	130	162	3.88	2.27	> 100000	47300	O=C(COc1ccccc1)N1CCCC[C@@H]1c1nnn(-c2ccc3[nH]ccc3c2)n1
992	5 (≈ 9.26 µM)	11.6	20.4	0.39	3.65	> 100000	> 100000	COc1ccc(Cl)cc1S(=O)(=O)N1CCSc2ccc(C(=O)Nc3nc(CC(=O)O)cs3)cc21
> 100000	295 (≈ 680 µM)	190	428	2.17	4.04	> 100000	54300	CC(=O)NCc1cccc(-c2n[nH]c([C@H]3CCCCN3C(=O)COc3ccccc3)n2)c1
> 100000	77 (≈ 178 µM)	192	546	2.18	2.18	44100	40200	O=C1NCc2ccc(-c3n[nH]c([C@H]4CCCCN4C(=O)COc4ccccc4)n3)cc2N1
> 100000	65 (≈ 134 µM)	60.8	406	2.29	2.27	49300	13400	O=C(COc1ccccc1)N1CCCC[C@@H]1c1nc(-c2ccc(S(=O)(=O)NCCO)cc2)no1
> 100000	101 (≈ 274 µM)	108	565	2.96	2.69	> 100000	29300	O=C(COc1ccccc1)N1CCCC[C@@H]1c1nc(-c2cccs2)n[nH]1
> 100000	5 (≈ 11.5 µM)	259	263	2.97	2.7	1120	701	O=C([C@H]1CCCCN1C(=O)COc1ccccc1)N1Cc2ccc(OCC3CC3)cc2C1
> 100000	22 (≈ 46.3 µM)	68.1	459	2.92	1.99	> 100000	> 100000	CCOC(=O)c1cn2ccc(-c3noc([C@H]4CCCCN4C(=O)COc4ccccc4)n3)cc2n1
> 100000	6 (≈ 14.8 µM)	51.4	30.4	3.25	1.54	> 100000	4770	CC(=O)c1ccc(-c2nc([C@H]3CCCCN3C(=O)COc3ccccc3)no2)cc1
> 100000	52 (≈ 128 µM)	34.2	255	2.66	5.08	37700	39700	NC(=O)c1ccc(-c2noc([C@H]3CCCCN3C(=O)COc3ccccc3)n2)cc1
